Data on two compounds can be found in US20220288001A1, “CREATINE FOR IMMUNOTHERAPY” (The Regents of the University of California, priority 2019, published 2022).

“Also recorded” adds a separate entry of the source.

What all share (type): cell-based, mouse
Assay [1] deals with CD8 T cells. In words: CD8 T cell activation with AICAR treatment (CD25 flow cytometry, IL-2 ELISA). As to conditions: CrT-WT and CrT-KO CD8 T cells; AICAR 250 μM; anti-CD3 16 hours. As for the experimental part:
CD8 T cells were cultured in vitro in standard T cell culture medium comprising RPMI 1640 (Cat #10040, Corning), 10% FBS (Cat #F2442, Sigma), 1% Penicillin-Streptomycin-Glutamine (Cat #10378016, Gibco), 1% MEM Non-Essential Amino Acids Solution (Cat #11140050, Gibco), 1% HEPES (Cat #15630080, Gibco), 1% Sodium Pyruvate (100 mM) (Cat #11360070, Gibco), and 0.05 mM β -Mercaptoethanol (Cat #M3148, Sigma). Unless otherwise indicated, cells were seeded at 0.5×10^6 cells per well in 24-well plates and stimulated with plate-bound anti-CD3 (5 μg/ml) (clone 145-2C11), for up to 5 days. At indicated time point(s), cells were collected and analyzed for CrT mRNA expression using qPCR, for cell proliferation through cell counting, for viability through Annexin V/7-AAD staining followed by flow cytometry analysis, for surface activation marker (CD25) expression through surface staining followed by flow cytometry analysis, for effector molecule (Granzyme B, IL-2, and IFN-γ) production through intracellular staining followed by flow cytometry analysis, and for cytokine (IL-2 and IFN-γ) secretion through collecting cell culture supernatants followed by ELISA analysis. CrT protein expression and TCR signaling events were analyzed using western blot analysis. […]

A further assay has as its system AMPK. In words: Western blot of AMPK and TCR signaling events in CD8 T cells with AICAR treatment. How it is done: In some other experiments, AICAR (5-aminoimidazole-4-carboxamide 1-β-D-ribofuranoside, Cat #A9978, Sigma-Aldrich), an AMPK activator, was reconstituted in DMSO and used to pretreat T cells for 30 minutes, at the concentration of 2 mM followed by 20 minutes of anti-CD3 stimulation for western blot analysis of TCR signaling events, or at the concentration of 250 μM followed by 16 hours of anti-CD3 stimulation for flow cytometry analysis of CD25 expression and ELISA analysis of IL-2 production.
Total protein was extracted using RIPA lysis buffer (Thermo Fisher Scientific) supplemented with a phosphatase inhibitor cocktail (Sigma-Aldrich) and a protease inhibitor cocktail (Roche) following the manufacturers' instructions. Nuclear protein was extracted using a Nuclear Protein Extraction Kit (Thermo Fisher Scientific) following the manufacturer's instructions, or using homemade reagents (10 mM HEPES pH 7.9, 10 mM KCl, 0.34 M sucrose, 10% glycerol, 1 mM DTT, 0.1% Triton X-100, 1.5 mM MgCl2 and protease inhibitor cocktail) following a previously established protocol (Ma et al., 2019). Protein concentration was measured by a BCA assay (Cat #23228 and Cat #1859078, Thermo Fisher Scientific). Equal amounts of protein were resolved on a 12% SDS-PAGE gel and then transferred to a PVDF membrane by electrophoresis. The following anti-mouse antibodies were purchased from Cell Signaling Technology and used to blot for the protein of interest: p-Zap-70 (cat #2705S; clone 99F2); Zap-70 (cat #2717S; clone Y319); p-Lck (cat #2751S; clone Y505); Lck (cat #2752S); p-c-Jun (cat #9261S; clone S63); NFAT (cat #4389S); NF-κB p65 (cat #8242P; clone D14E12); AMPK (cat #5831T; clone D5A2); p-AMPK (cat #2535T; clone 40H9), secondary anti-mouse (cat #7076P2), and secondary anti-rabbit (cat #7074P2). Anti-mouse CrT (SLC6A8) (cat #PA5-37060) was purchased from Thermo Fisher Scientific. β-Actin (Santa Cruz Biotechnology Inc.; cat #sc-69879; clone AC-15) was used as an internal control for total protein extracts, while Lamin A (Santa Cruz Biotechnology; cat #sc-71481; clone 4A58) was used as an internal control for nuclear protein extracts. Signals were visualized with autoradiography using an ECL system (Cat #RPN2232, Thermo Fisher Scientific). Data analysis was performed using ImageJ software (NIH).

Assay [2] deals with CD8 T cells. In words: CD8 T cell activation in vitro with ATP supplementation (CD25 flow cytometry, IFN-γ ELISA). Conditions: ATP 100 μM, anti-CD3. As for the experimental part: CD8 T cells were cultured in vitro in standard T cell culture medium comprising RPMI 1640 (Cat #10040, Corning), 10% FBS (Cat #F2442, Sigma), 1% Penicillin-Streptomycin-Glutamine (Cat #10378016, Gibco), 1% MEM Non-Essential Amino Acids Solution (Cat #11140050, Gibco), 1% HEPES (Cat #15630080, Gibco), 1% Sodium Pyruvate (100 mM) (Cat #11360070, Gibco), and 0.05 mM β -Mercaptoethanol (Cat #M3148, Sigma). Unless otherwise indicated, cells were seeded at 0.5×10^6 cells per well in 24-well plates and stimulated with plate-bound anti-CD3 (5 μg/ml) (clone 145-2C11), for up to 5 days. At indicated time point(s), cells were collected and analyzed for CrT mRNA expression using qPCR, for cell proliferation through cell counting, for viability through Annexin V/7-AAD staining followed by flow cytometry analysis, for surface activation marker (CD25) expression through surface staining followed by flow cytometry analysis, for effector molecule (Granzyme B, IL-2, and IFN-γ) production through intracellular staining followed by flow cytometry analysis, and for cytokine (IL-2 and IFN-γ) secretion through collecting cell culture supernatants followed by ELISA analysis. CrT protein expression and TCR signaling events were analyzed using western blot analysis.
(§1) In some experiments, ATP (adenosine-5′-triphosphate disodium salt hydrate, Cat #A6419, Sigma-Aldrich) was reconstituted in sterile PBS and added to T cell culture (100 μM) for two to three days along with anti-CD3 stimulation, followed by analyzing T cell surface activation marker (CD25) expression using flow cytometry, and analyzing effector cytokine (IFN-γ) secretion using ELISA. In some experiments, T cells were stimulated with anti-CD3 for 48 hours, rested at 4° C. for 2 hours, then restimulated with anti-CD3 for 30 minutes in the presence or absence of ATP supplementation (100 μM) followed by analyzing TCR signaling events using western blot.
ELISA was performed for the detection of cytokines according to a BD Biosciences protocol. […] The absorbance was measured at 450 nm using an Infinite M1000 microplate reader (Tecan).
For orientation: In flow cytometry, cells or beads pass a laser one at a time.

The subject of another assay is TCR signaling. In words: Western blot of TCR signaling events in CrT-KO CD8 T cells with ATP supplementation. Conditions: ATP 100 μM, restimulated with anti-CD3 30 minutes. As for the experimental part:
as §1
Total protein was extracted using RIPA lysis buffer (Thermo Fisher Scientific) supplemented with a phosphatase inhibitor cocktail (Sigma-Aldrich) and a protease inhibitor cocktail (Roche) following the manufacturers' instructions. Nuclear protein was extracted using a Nuclear Protein Extraction Kit (Thermo Fisher Scientific) following the manufacturer's instructions, or using homemade reagents (10 mM HEPES pH 7.9, 10 mM KCl, 0.34 M sucrose, 10% glycerol, 1 mM DTT, 0.1% Triton X-100, 1.5 mM MgCl2 and protease inhibitor cocktail) following a previously established protocol (Ma et al., 2019). Protein concentration was measured by a BCA assay (Cat #23228 and Cat #1859078, Thermo Fisher Scientific). […]
On the technique in general: In western blotting, separated proteins are transferred to a membrane and probed.

`NC(=O)c1ncn([C@@H]2O[C@H](CO)[C@@H](O)[C@H]2O)c1N` [AICAR, 5-aminoimidazole-4-carboxamide 1-β-D-ribofuranoside]: in the assay with CD8 T cells [1], the “cell surface activation marker expression (CD25)” value is recorded as “significant reduction” and the “effector cytokine production (IL-2)” value is “significant reduction”. Further, in the assay on AMPK (CD8 T cells, AICAR 2 mM), the “activation of NFAT” value is on record as “not affected” and the “activation of Zap-70” value is recorded as “not affected”. Further, the “AP-1 transcription factor activation (c-Jun subunit)” value in the assay with AMPK (CrT-WT and CrT-KO CD8 T cells, AICAR 2 mM) was “significant reduction”. Moreover, the AMPK activation result in the assay on AMPK (CrT-WT and CrT-KO CD8 T cells, AICAR 2 mM pretreatment 30 minutes) is “markedly activated AMPK”.

With `Nc1ncnc2c1ncn2[C@@H]1O[C@H](COP(=O)([O-])OP(=O)([O-])OP(=O)(O)O)[C@@H](O)[C@H]1O.O.[Na+].[Na+]` [ATP, adenosine-5′-triphosphate disodium salt hydrate], in the assay on CD8 T cells [2] (CrT-KO CD8 T cells, day 3), the “effector cytokine IFN-γ production” value was “enhanced production” and the “surface activation marker CD25 expression” value is “increased expression”. Also, the “activation of CD8 T cells (CD25)” value in the assay with CD8 T cells [2] (CrT-WT CD8 T cells, 48 hours, disodium salt hydrate) is recorded as “further increased the activation; also recorded: further enhanced the activation”. In addition, in the assay on TCR signaling, the TCR signaling deficiencies entry is “effectively rescued”.
